Experimental data published in patent publication US20020155172A1, “Methods and compounds for decreasing cell toxicity or death” (priority 2000, published 2002).

Legend:
[1] = tested on: semi-purified Q79 oligomers from HeLa cells expressing transfected Q79-GFP; assay: Disassembly of semi-purified Q79 oligomers; assay type: biochemical; settings: 25 μM (FIG. 6C); fluorescence microscopy
Experimental: FIG. 6C is a set of scanned images of the disruption of pre-formed Q79-GFP oligomers by Congo red, minocycline, or rolitetracycline. Lysates from Q79-GFP expressing cells were treated with 25 μM of the indicated compound, and visualized by fluorescence microscopy.
To determine if binding to polyglutamine is sufficient to inhibit the aggregate formation, we compared the ability of minocycline, rolitetracycline, iota carrageenan, dextran, chrysamine G, and Congo red to bind to 81-repeat polyglutamine polypeptide by the chemical absorption assay described above (FIG. 6B). […] To examine the relationship of compound binding and its ability to dissolve expanded polyglutamine aggregates, we tested their effects on semi-purified Q79 oligomers from HeLa cells expressing transfected Q79-GFP, viewed using a microscope.

[2] = tested on: R62 mice and wild-type mice; assay: Body weight; assay type: in vivo
Description: FIG. 10A is a graph showing the effect of Congo red or PBS (vehicle) on body weight in HD transgenic mice between 9 and 11 weeks of age (top graph) and between 9 and 13 weeks of age (bottom graph). Mice were infused intraperitoneally (IP) or by intracerebroventricular cannula (ICV) implanted into the predetermined coordinates on the left ventricle, or by both routes.
(§1) In addition, the ability of Congo red to inhibit the formation as well as to disrupt preformed polyglutamine oligomers allowed us to examine the role of polyglutamine aggregates in neuronal dysfunction and degeneration characteristic of polyglutamine expansion diseases. In these studies, we used the animal model of Huntington's disease (R62), which expresses the truncated form of huntingtin with 139 CAG repeats Mangiarini et al. (supra). We took advantage of our finding that in addition to inhibiting polyglutamine oligomerization, Congo red also disrupts pre-formed oligomers, thus allowing assessment of the impact of Congo red on disease progression after formation of polyglutamine aggregates and the onset of symptoms. […]
One of the common features of Huntington's disease is severe weight loss, proposed to be due to metabolic defects as a part of the systemic pathology of the expanded polyglutamine repeat diseases. We monitored the body weight of mice before and after treatment (FIG. 10A).

R62 mice [3] = assay: Dyskinesia of the hindlimbs, gait and stride length (ink test); assay type: in vivo
Description: FIG. 10D is a set of scanned images of the effect of Congo red or PBS (vehicle) on motor coordination, as assessed by the “ink” test in HD transgenic mice three weeks after Congo red or vehicle treatment. The “ink” test was used to determine the changes in stride length and the overlap of steps characteristic of movement disorders using red and green food coloring to mark the front and back paws, respectively. Changes in stride length of individual mice from one set of paws (brackets) and the differences in the step overlapping patterns (open arrows) three weeks after vehicle or Congo red treatment were assayed.
FIG. 10E is a table of the quantification of changes in stride length in HD transgenic mice treated with either Congo red or PBS (vehicle) (#, n=5 in each cohort), assessed as described in FIG. 10D.
as §1, with “symptoms. R62 transgenic mice and CBAxC57B1/6 F1 wild type littermates were obtained from Jackson Laboratories (Bar Harbor, Me.) at the age of five weeks.” for “symptoms.”
The initial abnormal neurological signs of R62 mice include dyskinesia of the hindlimbs when mice were suspended by the tail, and irregular gait. […] The effect of Congo red on motor performance in R62 mice was also assessed by rotarod studies. […]

R62 mice [4] = assay: EM48 immunostaining of polyglutamine aggregates in brain; assay type: in vivo
Experimental: To test whether Congo red can disrupt and inhibit the formation of expanded polyglutamine oligomers in vivo, we analyzed the brain samples from control- and Congo red-treated […] mice. Mice were anesthetized with isoflurane, perfused intracardially with 4% paraformaldehyde in phosphate buffered saline (pH 7.4). The brain was removed and washed several times in PBS before overnight incubation in PBS containing 30% sucrose, and was then embedded in OTC (Sigma, MO.). Cryostat frozen sections were washed in PBS, and non-specific binding was blocked with 5% normal goat serum in PBS containing 0.1% Triton. Sections were stained using an anti-EM48 antibody at a 1:1000 dilution, and immunoreactivity was detected using the ABC kit, as described by the manufacturer (Vector, Co.). Some slides were lightly counter stained with hematoxylin.

[5] = ink test three weeks after treatment

## Nc1c(/N=N/c2ccc(-c3ccc(/N=N/c4cc(S(=O)(=O)O)c5ccccc5c4N)cc3)cc2)cc(S(=O)(=O)O)c2ccccc12 [Congo red, diphenyldiazo-bis-alpha-napthylaminesulfonate]
[1]
  disassembly of pre-formed poly-Q oligomers: caused the disassembly of pre-formed poly-Q oligomers
[2]; 9 to 13 weeks, versus vehicle treated wild-type mice
  body weight, wild-type mice: no change in body weight
[2]; ICV or IP route of delivery
  loss of body weight, expanded polyglutamine repeat expressing mice: significantly ameliorated
R62 mice [3]
  dyskinesia of the hindlimbs: significantly inhibited the dyskinesia of the hindlimbs
R62 mice [3]; [5]
  gait: preserved the normal gait
  stride length: preserved the normal gait (FIG. 10D) and stride length
R62 mice [4]; R62 mice
  EM48 positive polyglutamine aggregates in the cortex and hippocampus: reduction of EM48 positive polyglutamine aggregates
R62 mice [4]; R62 mice 12.5 weeks old
  expanded polyglutamine repeats in the basal ganglia (EM48): Extensive clearance of expanded polyglutamine repeats
